Experimental data from patent US10875852B2, “Heteroaromatic compounds as BTK inhibitors” (Boehringer Ingelheim International GmbH, priority 2012, dated 2020).

Biological target: full-length human His-tagged BTK (Homo sapiens (Human), UniProt Q06187)
Test: BTK HTRF assay (Cisbio KinEASE-TK)
Type: biochemical
Conditions: 6 nM BTK, 30 uM ATP, 15 min preincubation
Experimental: An HTRF assay (Cisbio KinEASE-TK cat #62TK0PEC) was performed to quantitate the ability of test compounds to inhibit BTK mediated phosphorylation of substrate. Assays were assembled in 384 well plates where 6 nM of full-length human His-tagged BTK (Life Technologies cat # PV3587) and test compound at varying concentrations were preincubated for 15 minutes at 28° C. Then, 1 uM of TK substrate-biotin and 30 uM ATP were added and incubated for an additional 30 minutes at 28° C.

Sequence of full-length human His-tagged BTK (Q06187 whole entry): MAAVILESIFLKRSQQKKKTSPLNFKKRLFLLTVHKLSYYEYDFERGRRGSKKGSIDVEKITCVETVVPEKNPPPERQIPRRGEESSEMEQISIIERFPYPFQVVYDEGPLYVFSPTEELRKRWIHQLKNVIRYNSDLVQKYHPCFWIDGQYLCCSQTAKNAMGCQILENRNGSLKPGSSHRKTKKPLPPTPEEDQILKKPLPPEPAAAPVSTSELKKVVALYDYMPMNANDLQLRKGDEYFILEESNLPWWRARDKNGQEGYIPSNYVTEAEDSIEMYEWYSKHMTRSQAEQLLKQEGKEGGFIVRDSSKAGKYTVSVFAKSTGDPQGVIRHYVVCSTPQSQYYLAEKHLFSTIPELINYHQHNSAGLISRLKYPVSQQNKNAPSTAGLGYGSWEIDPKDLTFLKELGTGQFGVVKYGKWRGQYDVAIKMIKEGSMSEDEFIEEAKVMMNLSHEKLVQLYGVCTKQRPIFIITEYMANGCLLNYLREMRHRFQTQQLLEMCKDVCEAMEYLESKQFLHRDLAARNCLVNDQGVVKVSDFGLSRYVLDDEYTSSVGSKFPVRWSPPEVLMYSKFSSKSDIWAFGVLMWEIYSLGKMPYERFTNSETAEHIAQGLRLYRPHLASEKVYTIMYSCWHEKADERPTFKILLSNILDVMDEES

IC50: 20 nM
Structure (SMILES): C=CC(=O)N1CC[C@]2(C1)C[C@H](n1nc(-c3ccc(OC)cc3Cl)c(C(N)=O)c1N)C2 [Example 159]
